The target of data set [1] is T1, Dipeptidyl peptidase 4 (Homo sapiens, UniProt P27487). Put plainly: Inhibition of DPP4.
Data set [2] deals with T1, Dipeptidyl peptidase 4. In words: Inhibition of DPP4 in presence of 50% human serum.
The next data set addresses Dipeptidyl peptidase 2 (Homo sapiens, UniProt Q9UHL4). Put plainly: Inhibition of QPP.
For another data set, the target named is Dipeptidyl peptidase 8 (Homo sapiens, UniProt Q6V1X1). Put plainly: Inhibition of DPP8.
Another data set addresses Dipeptidyl peptidase 9 (Homo sapiens, UniProt Q86TI2). Put plainly: Inhibition of DPP9.
In a further data set the target is T2, Prolyl endopeptidase FAP (Homo sapiens, UniProt Q12884).
T2 sequence (Q12884 whole entry): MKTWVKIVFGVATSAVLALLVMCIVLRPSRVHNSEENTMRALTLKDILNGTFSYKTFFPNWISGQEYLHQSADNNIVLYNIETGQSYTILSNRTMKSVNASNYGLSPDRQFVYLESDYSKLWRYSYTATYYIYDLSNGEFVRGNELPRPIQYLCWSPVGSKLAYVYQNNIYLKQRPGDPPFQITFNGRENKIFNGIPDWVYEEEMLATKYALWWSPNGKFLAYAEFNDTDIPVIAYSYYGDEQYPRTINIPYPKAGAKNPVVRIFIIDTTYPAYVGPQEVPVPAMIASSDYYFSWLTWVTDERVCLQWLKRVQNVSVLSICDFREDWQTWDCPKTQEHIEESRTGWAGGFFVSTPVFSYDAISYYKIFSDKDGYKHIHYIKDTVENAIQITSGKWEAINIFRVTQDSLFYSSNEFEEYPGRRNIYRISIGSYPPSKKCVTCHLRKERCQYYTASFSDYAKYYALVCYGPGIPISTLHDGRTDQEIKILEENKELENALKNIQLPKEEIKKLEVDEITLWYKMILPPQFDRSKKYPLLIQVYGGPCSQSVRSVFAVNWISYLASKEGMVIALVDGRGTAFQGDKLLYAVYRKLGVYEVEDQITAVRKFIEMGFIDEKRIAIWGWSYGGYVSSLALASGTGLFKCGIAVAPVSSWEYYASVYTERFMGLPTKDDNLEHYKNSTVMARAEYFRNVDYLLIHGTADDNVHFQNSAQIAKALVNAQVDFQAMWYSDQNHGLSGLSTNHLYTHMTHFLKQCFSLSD
Put plainly: Inhibition of FAP.

Another data set deals with Xaa-Pro aminopeptidase 1 (Homo sapiens, UniProt Q9NQW7). Put plainly: Inhibition of aminopeptidase P.
The next data set deals with T3, Xaa-Pro dipeptidase (Homo sapiens, UniProt P12955).
T3 sequence (P12955 whole entry): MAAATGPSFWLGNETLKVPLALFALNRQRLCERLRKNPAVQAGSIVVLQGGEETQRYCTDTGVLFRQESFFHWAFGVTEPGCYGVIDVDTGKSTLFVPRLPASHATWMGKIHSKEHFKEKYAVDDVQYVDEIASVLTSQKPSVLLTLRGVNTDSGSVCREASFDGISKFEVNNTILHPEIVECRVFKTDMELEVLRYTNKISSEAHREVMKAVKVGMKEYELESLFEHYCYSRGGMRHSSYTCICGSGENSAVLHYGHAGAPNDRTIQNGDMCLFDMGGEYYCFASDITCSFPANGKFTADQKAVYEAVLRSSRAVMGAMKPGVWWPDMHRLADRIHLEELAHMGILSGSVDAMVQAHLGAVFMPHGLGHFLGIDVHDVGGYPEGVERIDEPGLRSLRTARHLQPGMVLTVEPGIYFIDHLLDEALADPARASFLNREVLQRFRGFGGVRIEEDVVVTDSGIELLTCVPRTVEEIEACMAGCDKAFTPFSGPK
In words: Inhibition of prolidase.

Data set [3] in a line: Half life in rat at 1 mg/kg, iv or 2 mg/kg, po. Format: ADME, organism-based. As to conditions: in vivo.
Another data set concerns Rattus norvegicus. In words: AUC in rat at 2 mg/kg, po normalized to 1 mg/kg. As to conditions: in vivo. The data set is classed as ADME, organism-based, Plasma.
Data set [4] in a line: Cmax in rat at 2 mg/kg, po. The data set is classed as ADME, organism-based. Set-up: dose 2 mg/kg, route oral. As to conditions: in vivo.
The nature of data set [5]: Bioavailability in rat at 1 mg/kg, iv and 2 mg/kg, po. Format: ADME, organism-based. Particulars: in vivo.
A short description of data set [6]: Plasma clearance in rat at 1 mg/kg, iv or 2 mg/kg, po. The data set is classed as ADME, organism-based.

Dipeptidyl peptidase 8, sequence (Q6V1X1 whole entry): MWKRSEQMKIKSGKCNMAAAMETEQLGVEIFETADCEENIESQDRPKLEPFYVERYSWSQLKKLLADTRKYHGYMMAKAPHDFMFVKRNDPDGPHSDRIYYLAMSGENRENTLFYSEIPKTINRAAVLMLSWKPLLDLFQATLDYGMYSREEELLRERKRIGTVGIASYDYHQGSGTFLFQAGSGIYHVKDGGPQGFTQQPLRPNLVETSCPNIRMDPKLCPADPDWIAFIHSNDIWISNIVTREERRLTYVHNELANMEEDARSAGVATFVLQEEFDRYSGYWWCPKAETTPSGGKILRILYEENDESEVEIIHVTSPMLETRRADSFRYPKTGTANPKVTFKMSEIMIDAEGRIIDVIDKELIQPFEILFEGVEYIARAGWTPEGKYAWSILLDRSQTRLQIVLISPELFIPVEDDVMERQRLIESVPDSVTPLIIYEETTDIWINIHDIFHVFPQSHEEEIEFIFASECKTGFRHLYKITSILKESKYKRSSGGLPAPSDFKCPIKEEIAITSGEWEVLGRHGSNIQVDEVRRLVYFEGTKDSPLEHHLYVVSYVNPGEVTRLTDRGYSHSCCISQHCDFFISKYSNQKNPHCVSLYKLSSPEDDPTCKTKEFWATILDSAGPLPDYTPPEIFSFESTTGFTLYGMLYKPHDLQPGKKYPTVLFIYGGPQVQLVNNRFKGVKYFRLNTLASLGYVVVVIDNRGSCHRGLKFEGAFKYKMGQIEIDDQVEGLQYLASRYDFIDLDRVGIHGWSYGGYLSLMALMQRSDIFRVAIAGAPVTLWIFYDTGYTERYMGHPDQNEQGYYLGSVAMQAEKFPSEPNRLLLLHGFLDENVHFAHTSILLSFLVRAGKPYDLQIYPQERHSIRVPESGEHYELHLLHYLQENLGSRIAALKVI
Dipeptidyl peptidase 9, sequence (Q86TI2 whole entry): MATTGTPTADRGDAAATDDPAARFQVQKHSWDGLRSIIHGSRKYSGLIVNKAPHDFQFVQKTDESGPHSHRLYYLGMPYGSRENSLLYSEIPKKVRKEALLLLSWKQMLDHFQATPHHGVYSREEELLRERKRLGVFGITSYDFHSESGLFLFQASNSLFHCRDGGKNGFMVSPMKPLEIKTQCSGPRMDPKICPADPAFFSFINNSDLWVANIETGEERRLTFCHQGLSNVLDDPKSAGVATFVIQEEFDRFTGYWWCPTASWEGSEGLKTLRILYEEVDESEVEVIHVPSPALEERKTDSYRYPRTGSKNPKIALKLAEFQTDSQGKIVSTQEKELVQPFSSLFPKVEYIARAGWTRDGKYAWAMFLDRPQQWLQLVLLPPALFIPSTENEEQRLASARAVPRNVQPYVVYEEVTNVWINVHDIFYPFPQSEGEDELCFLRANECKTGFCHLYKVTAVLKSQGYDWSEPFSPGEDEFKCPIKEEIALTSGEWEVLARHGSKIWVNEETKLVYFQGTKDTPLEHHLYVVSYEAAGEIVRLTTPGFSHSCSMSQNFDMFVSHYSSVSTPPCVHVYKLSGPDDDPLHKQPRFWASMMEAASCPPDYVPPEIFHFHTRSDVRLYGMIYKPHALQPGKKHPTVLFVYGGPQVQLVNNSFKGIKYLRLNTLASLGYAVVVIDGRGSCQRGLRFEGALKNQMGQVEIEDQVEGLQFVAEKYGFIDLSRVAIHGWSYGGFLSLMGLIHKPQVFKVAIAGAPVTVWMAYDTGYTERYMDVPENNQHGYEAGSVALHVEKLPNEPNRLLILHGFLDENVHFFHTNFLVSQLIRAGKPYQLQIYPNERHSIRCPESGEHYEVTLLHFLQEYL
Xaa-Pro aminopeptidase 1, sequence (Q9NQW7 whole entry): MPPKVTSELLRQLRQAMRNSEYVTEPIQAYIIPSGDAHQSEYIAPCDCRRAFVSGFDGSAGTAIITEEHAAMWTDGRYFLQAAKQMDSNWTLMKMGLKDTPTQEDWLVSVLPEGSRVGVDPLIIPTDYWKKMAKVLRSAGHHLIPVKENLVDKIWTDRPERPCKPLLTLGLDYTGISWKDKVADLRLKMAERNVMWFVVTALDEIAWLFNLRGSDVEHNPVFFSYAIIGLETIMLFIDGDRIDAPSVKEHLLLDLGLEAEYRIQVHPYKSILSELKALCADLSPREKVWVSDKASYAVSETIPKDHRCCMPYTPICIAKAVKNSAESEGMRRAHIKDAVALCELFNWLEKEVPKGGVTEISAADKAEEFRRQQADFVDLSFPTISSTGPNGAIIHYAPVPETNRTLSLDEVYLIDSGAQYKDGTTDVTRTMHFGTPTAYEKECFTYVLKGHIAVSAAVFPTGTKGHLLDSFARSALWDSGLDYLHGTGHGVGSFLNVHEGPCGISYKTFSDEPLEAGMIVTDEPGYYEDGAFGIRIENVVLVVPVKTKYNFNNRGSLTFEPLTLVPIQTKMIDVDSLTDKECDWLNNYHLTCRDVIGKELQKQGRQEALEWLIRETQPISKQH
T1 sequence (P27487 whole entry): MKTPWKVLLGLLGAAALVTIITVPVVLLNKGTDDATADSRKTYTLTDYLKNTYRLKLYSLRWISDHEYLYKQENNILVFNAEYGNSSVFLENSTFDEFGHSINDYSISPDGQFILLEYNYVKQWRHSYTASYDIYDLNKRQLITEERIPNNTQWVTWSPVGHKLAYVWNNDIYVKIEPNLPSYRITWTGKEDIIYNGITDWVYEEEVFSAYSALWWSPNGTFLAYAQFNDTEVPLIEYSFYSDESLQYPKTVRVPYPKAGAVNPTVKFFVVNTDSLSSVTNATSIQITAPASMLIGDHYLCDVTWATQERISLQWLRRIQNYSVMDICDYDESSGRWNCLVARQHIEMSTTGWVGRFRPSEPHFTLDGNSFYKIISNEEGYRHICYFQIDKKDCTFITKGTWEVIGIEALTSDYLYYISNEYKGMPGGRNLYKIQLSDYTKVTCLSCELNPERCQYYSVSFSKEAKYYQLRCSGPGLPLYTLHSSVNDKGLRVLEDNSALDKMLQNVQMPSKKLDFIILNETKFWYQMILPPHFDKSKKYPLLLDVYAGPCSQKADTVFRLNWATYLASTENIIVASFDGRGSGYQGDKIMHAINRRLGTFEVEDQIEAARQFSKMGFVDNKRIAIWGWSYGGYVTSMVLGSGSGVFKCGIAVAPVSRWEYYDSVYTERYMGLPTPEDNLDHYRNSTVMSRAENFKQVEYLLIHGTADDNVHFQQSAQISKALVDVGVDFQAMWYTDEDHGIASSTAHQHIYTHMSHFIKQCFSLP

Regarding `Cc1nc2ccc(-c3ccc([C@H](C(=O)N(C)C)[C@H](N)C(=O)N4CC[C@H](F)C4)cc3)cn2n1`, the IC50 – broadly, the midpoint of a concentration-inhibition curve – against Dipeptidyl peptidase 4 [1] was 0.022 µM; at Dipeptidyl peptidase 4 [2] it was 0.223 µM; against Dipeptidyl peptidase 2, above 100 µM; at Dipeptidyl peptidase 8, above 100 µM; on Dipeptidyl peptidase 9, above 100 µM; on Prolyl endopeptidase FAP, above 40 µM. Also, the IC50 against Xaa-Pro aminopeptidase 1 and on Xaa-Pro dipeptidase was above 40 µM in each case.

Turning to `Cc1c(-c2ccc([C@H](C(=O)N(C)C)[C@H](N)C(=O)N3CC[C@H](F)C3)cc2)ccc2ncnn12`, the IC50 against Dipeptidyl peptidase 4 [1] is 0.0086 µM; on Dipeptidyl peptidase 4 [2], 0.061 µM; against Dipeptidyl peptidase 2, above 100 µM; at Dipeptidyl peptidase 8 it was above 100 µM; against Dipeptidyl peptidase 9, above 100 µM; at Prolyl endopeptidase FAP it was above 40 µM. The IC50 on Xaa-Pro aminopeptidase 1 and against Xaa-Pro dipeptidase was above 40 µM throughout.

`CN(C)C(=O)[C@@H](c1ccc(-c2ccc3nccn3n2)cc1)[C@H](N)C(=O)N1CC[C@H](F)C1`: the IC50 against Dipeptidyl peptidase 4 [1] is 0.013 µM; at Dipeptidyl peptidase 4 [2], 0.177 µM; at Dipeptidyl peptidase 2 it was above 100 µM; against Dipeptidyl peptidase 8, above 100 µM; at Dipeptidyl peptidase 9, above 100 µM; on Prolyl endopeptidase FAP, above 40 µM. Moreover, the IC50 at Xaa-Pro aminopeptidase 1 and on Xaa-Pro dipeptidase was above 40 µM in each case.

For `CN(C)C(=O)[C@@H](c1ccc(-c2ccn3nccc3n2)cc1)[C@H](N)C(=O)N1CC[C@H](F)C1.O=C(O)C(F)(F)F`, the IC50 against Dipeptidyl peptidase 4 [1] is 0.008 µM; on Dipeptidyl peptidase 4 [2] it was 0.053 µM; at Dipeptidyl peptidase 2, 63 µM; against Dipeptidyl peptidase 8 it was above 100 µM; against Dipeptidyl peptidase 9 it was above 100 µM; against Prolyl endopeptidase FAP it was above 40 µM. Also, the IC50 against Xaa-Pro aminopeptidase 1 and against Xaa-Pro dipeptidase was above 40 µM throughout. Moreover, the half-life – broadly, the time needed for the level to fall by half in the phase considered – in [3] is 4.3 h. Also, the area under the curve (AUC) (usually concentration integrated over time) in the data set with Rattus norvegicus worked out at 5.6 µM·h. In addition, the Cmax (usually the highest concentration seen after dosing) in data set [4] was determined as 3900 nM. Moreover, the bioavailability (commonly dose-corrected exposure relative to a reference, in per cent) in data set [5] was 46%. Further, in [6], the clearance came to 3.3 mL/min/kg.

On to `CN(C)C(=O)[C@@H](c1ccc(-c2ccn3ncnc3c2)cc1)[C@H](N)C(=O)N1CC[C@H](F)C1.O=C(O)C(F)(F)F`, for which the IC50 on Dipeptidyl peptidase 4 [1] was 0.0053 µM; on Dipeptidyl peptidase 4 [2] it was 0.035 µM; on Dipeptidyl peptidase 2, 14 µM; on Dipeptidyl peptidase 8, above 100 µM; against Dipeptidyl peptidase 9, above 100 µM; at Prolyl endopeptidase FAP, above 40 µM. The IC50 on Xaa-Pro aminopeptidase 1 and against Xaa-Pro dipeptidase was above 40 µM in each case. Besides, in data set [3], the half-life was 1.7 h. The same compound returned an AUC with Rattus norvegicus of 0.83 µM·h. This compound also showed a Cmax in data set [4] of 600 nM. This compound also yielded a bioavailability in data set [5] of 21%. In data set [6], this compound showed a clearance of 10 mL/min/kg.

As for `CN(C)C(=O)[C@@H](c1ccc(-c2ccc3nncn3c2)cc1)[C@H](N)C(=O)N1CC[C@H](F)C1.O=C(O)C(F)(F)F`, the IC50 on Dipeptidyl peptidase 4 [1] was 0.0041 µM; on Dipeptidyl peptidase 4 [2] it was 0.016 µM; on Dipeptidyl peptidase 2, above 100 µM; on Dipeptidyl peptidase 8 it was above 100 µM; against Dipeptidyl peptidase 9, above 100 µM; at Prolyl endopeptidase FAP, above 40 µM. For the same compound, the IC50 on Xaa-Pro aminopeptidase 1 and against Xaa-Pro dipeptidase was above 40 µM each time. The half-life in data set [3] is 1.1 h. Also, in the data set on Rattus norvegicus, the AUC amounted to 0.009 µM·h. This compound also gave a Cmax in data set [4] of 8 nM. The same compound returned a bioavailability in data set [5] of 0.76%. The same compound gave a clearance in data set [6] of 34 mL/min/kg.

On to `Cc1cc(-c2ccc([C@H](C(=O)N(C)C)[C@H](N)C(=O)N3CC[C@H](F)C3)cc2)cn2ncnc12`, for which the IC50 was 0.15 µM at Dipeptidyl peptidase 4 [1]; 0.64 µM at Dipeptidyl peptidase 4 [2]; above 100 µM on Dipeptidyl peptidase 2; above 100 µM on Dipeptidyl peptidase 8; above 100 µM against Dipeptidyl peptidase 9; above 40 µM on Prolyl endopeptidase FAP. Also, the half-maximal inhibitory concentration (IC50) against Xaa-Pro aminopeptidase 1 and on Xaa-Pro dipeptidase was above 40 µM in each case.

For `CN(C)C(=O)[C@@H](c1ccc(-c2ccc3nccn3c2)cc1)[C@H](N)C(=O)N1CC[C@H](F)C1`, the IC50 is 0.013 µM on Dipeptidyl peptidase 4 [1]; 0.133 µM on Dipeptidyl peptidase 4 [2]; above 100 µM against Dipeptidyl peptidase 2; above 100 µM on Dipeptidyl peptidase 8; above 100 µM at Dipeptidyl peptidase 9; above 40 µM against Prolyl endopeptidase FAP. In addition, the IC50 on Xaa-Pro aminopeptidase 1 and against Xaa-Pro dipeptidase was above 40 µM in each case.
